Assay results: the NIST ThermoML archive (doi:10.1021/je301301j)
Numbers after ± are expanded uncertainties.

Test: molar heat capacity at constant pressure; xn = mol fraction of the nth substance listed
Conditions: Liquid, Flow calorimetry

C=CCCCC [hex-1-ene] + CCCCO
molar heat capacity at constant pressure [J/K/mol]
Conditions | x2 = 0 | x2 = 0.1001 | x2 = 0.2 | x2 = 0.3002 | x2 = 0.3999 | x2 = 0.5018 | x2 = 0.5997 | x2 = 0.7002 | x2 = 0.7999 | x2 = 0.9
293.15 K, 100 kPa | 179.2 ± 1.1 | 190.4 ± 1.2 | 191.6 ± 1.2 | 192.1 ± 1.2 | 188.5 ± 1.2 | 187.6 ± 1.2 | 184.9 ± 1.1 | 182.6 ± 1.1 | 178.7 ± 1.1 | 176.2 ± 1.1
293.15 K, 5000 kPa | 174.9 ± 1.1 | 187.5 ± 1.2 | 188.7 ± 1.2 | 189 ± 1.2 | 186.7 ± 1.2 | 185.6 ± 1.1 | 183.1 ± 1.1 | 180 ± 1.1 | 177.5 ± 1.1 | 175.7 ± 1.1
293.15 K, 10000 kPa | 172.7 ± 1.1 | 184.7 ± 1.1 | 186.3 ± 1.2 | 186.4 ± 1.2 | 184 ± 1.1 | 183.6 ± 1.1 | 180.6 ± 1.1 | 178.7 ± 1.1 | 175.1 ± 1.1 | 174 ± 1.1
293.15 K, 15000 kPa | 169.9 ± 1.1 | 182.6 ± 1.1 | 183.1 ± 1.1 | 185.1 ± 1.1 | 182.5 ± 1.1 | 182.1 ± 1.1 | 178.5 ± 1.1 | 177.1 ± 1.1 | 173.8 ± 1.1 | 172.1 ± 1.1
293.15 K, 20000 kPa | 168.1 ± 1 | 178.4 ± 1.1 | 179.9 ± 1.1 | 182.8 ± 1.1 | 180.1 ± 1.1 | 179.8 ± 1.1 | 176.1 ± 1.1 | 175.8 ± 1.1 | 172.4 ± 1.1 | 170.7 ± 1.1
293.15 K, 25000 kPa | 165.7 ± 1 | 176.7 ± 1.1 | 178 ± 1.1 | 180.1 ± 1.1 | 178.8 ± 1.1 | 178 ± 1.1 | 174.8 ± 1.1 | 173.5 ± 1.1 | 170.7 ± 1.1 | 169.3 ± 1
313.15 K, 100 kPa | 188.8 ± 1.2 | 204.1 ± 1.3 | 208 ± 1.3 | 209.8 ± 1.3 | 210.3 ± 1.3 | 205.3 ± 1.3 | 203 ± 1.3 | 200.2 ± 1.2 | 198.3 ± 1.2 | 193.4 ± 1.2
313.15 K, 5000 kPa | 185.9 ± 1.1 | 199.9 ± 1.2 | 204.8 ± 1.3 | 206.6 ± 1.3 | 206.5 ± 1.3 | 202.6 ± 1.3 | 200.6 ± 1.2 | 197.6 ± 1.2 | 195.5 ± 1.2 | 192.5 ± 1.2
313.15 K, 10000 kPa | 183.1 ± 1.1 | 196.1 ± 1.2 | 201.3 ± 1.2 | 203.2 ± 1.3 | 203.8 ± 1.3 | 199.9 ± 1.2 | 197.8 ± 1.2 | 195.2 ± 1.2 | 193.1 ± 1.2 | 190.4 ± 1.2
313.15 K, 15000 kPa | 181.6 ± 1.1 | 193.2 ± 1.2 | 198.7 ± 1.2 | 200.9 ± 1.2 | 201.5 ± 1.2 | 197.5 ± 1.2 | 195.7 ± 1.2 | 194 ± 1.2 | 191.9 ± 1.2 | 188 ± 1.2
313.15 K, 20000 kPa | 179.6 ± 1.1 | 191 ± 1.2 | 196.2 ± 1.2 | 198.2 ± 1.2 | 199.5 ± 1.2 | 194.1 ± 1.2 | 193 ± 1.2 | 192 ± 1.2 | 190.4 ± 1.2 | 186.5 ± 1.2
313.15 K, 25000 kPa | 177.2 ± 1.1 | 188.1 ± 1.2 | 193.4 ± 1.2 | 194.5 ± 1.2 | 197 ± 1.2 | 192.9 ± 1.2 | 191.4 ± 1.2 | 189.4 ± 1.2 | 188.2 ± 1.2 | 185 ± 1.1
